From patent US9499550B2 (BRISTOL-MYERS SQUIBB COMPANY, priority 2012, dated 2016)
pEC50: −log10 of the molar value. Read-outs that look alike come from different tables or passages of the source.

Assays:
[1] = test system: HCV genotype 1a (H77 strain) replicon in HUH-7 cells; assay: HCV replicon luciferase reporter assay, genotype 1a; assay type: cell-based; conditions: Hepatitis C virus, Huh-7, 72 h, HCV genotype 1a replicon luciferase, 3 days incubation
How it was run: (§1)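 Replicon inhibition for both genotypes was measured as Renilla luciferase signal (EnduRen, 7.5 μM final, 2 h) after 3-day, 37° C exposure of replicon-bearing HUH-7 cells in 4% FCS DMEM, 0.5% DMSO. The 1b construct carries S1179I; the 1a H77 construct carries P1496L and S2204I. Twenty-point, 3-fold dilutions were fitted four-parametrically for EC50, and CC50 was taken from multiplexed Cell Titer-Blue.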

[2] = test system: HCV genotype 1b (Con1) replicon in HUH-7 cells; assay: HCV replicon luciferase reporter assay, genotype 1b; assay type: cell-based; conditions: Hepatitis C virus, Huh-7, 72 h, HCV genotype 1b replicon luciferase, 3 days incubation
How it was run: as §1

| Compound | pEC50 ([1]; read-out: LE_1a (EC50, range)) | pEC50 ([2]; read-out: LE_1b (EC50, range)) | pEC50 ([1]; read-out: LE_1a (EC50)) | pEC50 ([2]; read-out: LE_1b (EC50)) |
| --- | --- | --- | --- | --- |
| COc1cc2ccnc(O[C@@H]3C[C@H]4C(=O)N[C@]5(C(=O)NS(=O)(=O)C6CC6)C[C@H]5/C=C\CC[C@@H](C)C[C@@H](C)[C@H](NC(=O)OC(C)(C)C(F)(F)F)C(=O)N4C3)c2cc1OC [Compound 5387, 1,1,1-trifluoro-2-methylpropan-2-yl((2R,6S,7R,9R,13aS,14aR,16aS,Z)-14a-((cyclopropylsulfonyl)carbamoyl)-2-((6,7-dimethoxyisoquinolin-1-yl)oxy)-7,9-dimethyl-5,16-dioxo-1,2,3,5,6,7,8,9,10,11,13a,14,14a,15,16,16a-hexadecahydrocyclopropa[e]pyrrolo[1,2-a][1,4]diazacyclopentadecin-6-yl)carbamate] | 8.30 to 9.00 | 8.30 to 9.00 |  |  |
| COc1cc2ccnc(O[C@@H]3C[C@H]4C(=O)N[C@]5(C(=O)NS(=O)(=O)C6CC6)C[C@H]5/C=C\CC[C@@H](C)C[C@@H](C)[C@H](NC(=O)OC(C)(C)C(C)(F)F)C(=O)N4C3)c2cc1OC [Compound 5389, 3,3-difluoro-2-methylbutan-2-yl((2R,6S,7R,9R,13aS,14aR,16aS,Z)-14a-((cyclopropylsulfonyl)carbamoyl)-2-((6,7-dimethoxyisoquinolin-1-yl)oxy)-7,9-dimethyl-5,16-dioxo-1,2,3,5,6,7,8,9,10,11,13a,14,14a,15,16,16a-hexadecahydrocyclopropa[e]pyrrolo[1,2-a][1,4]diazacyclopentadecin-6-yl)carbamate] | 8.30 to 9.00 | 8.30 to 9.00 |  |  |
| COc1cc2ccnc(O[C@@H]3C[C@H]4C(=O)N[C@]5(C(=O)NS(=O)(=O)C6CC6)C[C@H]5/C=C\CC[C@@H](C)C[C@@H](C)[C@H](NC(=O)OC(C)(C)C)C(=O)N4C3)c2cc1OC [Compound 5391, tert-butyl ((2R,6S,7R,9R,13aS,14aR,16aS,Z)-14a-((cyclopropylsulfonyl)carbamoyl)-2-((6,7-dimethoxyisoquinolin-1-yl)oxy)-7,9-dimethyl-5,16-dioxo-1,2,3,5,6,7,8,9,10,11,13a,14,14a,15,16,16a-hexadecahydrocyclopropa[e]pyrrolo[1,2-a][1,4]diazacyclopentadecin-6-yl)carbamate] | 8.30 to 9.00 | 8.30 to 9.00 |  |  |
| CCOc1cc2ccnc(O[C@@H]3C[C@H]4C(=O)N[C@]5(C(=O)NS(=O)(=O)C6(C)CC6)C[C@H]5/C=C\CC[C@@H](C)C[C@@H](C)[C@H](NC(=O)OC(C)(C)C)C(=O)N4C3)c2cc1F [Compound 5393, tert-butyl ((2R,6S,7R,9R,13aS,14aR,16aS,Z)-2-((6-ethoxy-7-fluoroisoquinolin-1-yl)oxy)-7,9-dimethyl-14a-(((1-methylcyclopropyl)sulfonyl)carbamoyl)-5,16-dioxo-1,2,3,5,6,7,8,9,10,11,13a,14,14a,15,16,16a-hexadecahydrocyclopropa[e]pyrrolo[1,2-a][1,4]diazacyclopentadecin-6-yl)carbamate] | 9.00 to 9.29 | 9.00 to 9.29 | 9.04 | 9.26 |
| CCOc1cc2ccnc(O[C@@H]3C[C@H]4C(=O)N[C@]5(C(=O)NS(=O)(=O)C6(C)CC6)C[C@H]5/C=C\CC[C@@H](C)C[C@@H](C)[C@H](NC(=O)OC(C)(C)C(F)(F)F)C(=O)N4C3)c2cc1F [Compound 5395, 1,1,1-trifluoro-2-methylpropan-2-yl((2R,6S,7R,9R,13aS,14aR,16aS,Z)-2-((6-ethoxy-7-fluoroisoquinolin-1-yl)oxy)-7,9-dimethyl-14a-(((1-methylcyclopropyl)sulfonyl)carbamoyl)-5,16-dioxo-1,2,3,5,6,7,8,9,10,11,13a,14,14a,15,16,16a-hexadecahydrocyclopropa[e]pyrrolo[1,2-a][1,4]diazacyclopentadecin-6-yl)carbamate] | 8.30 to 9.00 | 9.00 to 9.29 |  |  |
| CCOc1cc2ccnc(O[C@@H]3C[C@H]4C(=O)N[C@]5(C(=O)NS(=O)(=O)C6(C)CC6)C[C@H]5/C=C\CC[C@@H](C)C[C@@H](C)[C@H](NC(=O)OC(C)(C)C(C)(F)F)C(=O)N4C3)c2cc1F [Compound 5397, 3,3-difluoro-2-methylbutan-2-yl((2R,6S,7R,9R,13aS,14aR,16aS,Z)-2-((6-ethoxy-7-fluoroisoquinolin-1-yl)oxy)-7,9-dimethyl-14a-(((1-methylcyclopropyl)sulfonyl)carbamoyl)-5,16-dioxo-1,2,3,5,6,7,8,9,10,11,13a,14,14a,15,16,16a-hexadecahydrocyclopropa[e]pyrrolo[1,2-a][1,4]diazacyclopentadecin-6-yl)carbamate] | 8.30 to 9.00 | 9.00 to 9.29 |  |  |
| CCOc1cc2ccnc(O[C@@H]3C[C@H]4C(=O)N[C@]5(C(=O)NS(=O)(=O)C6CC6)C[C@H]5/C=C\CC[C@@H](C)C[C@@H](C)[C@H](NC(=O)OC(C)(C)C)C(=O)N4C3)c2cc1F [Compound 5399, tert-butyl ((2R,6S,7R,9R,13aS,14aR,16aS,Z)-14a-((cyclopropylsulfonyl)carbamoyl)-2-((6-ethoxy-7-fluoroisoquinolin-1-yl)oxy)-7,9-dimethyl-5,16-dioxo-1,2,3,5,6,7,8,9,10,11,13a,14,14a,15,16,16a-hexadecahydrocyclopropa[e]pyrrolo[1,2-a][1,4]diazacyclopentadecin-6-yl)carbamate] | 9.00 to 9.29 | 9.30 to 10.00 |  |  |
| CCOc1cc2ccnc(O[C@@H]3C[C@H]4C(=O)N[C@]5(C(=O)NS(=O)(=O)C6CC6)C[C@H]5/C=C\CC[C@@H](C)C[C@@H](C)[C@H](NC(=O)OC(C)(C)C(F)(F)F)C(=O)N4C3)c2cc1F [Compound 5401, 1,1,1-trifluoro-2-methylpropan-2-yl((2R,6S,7R,9R,13aS,14aR,16aS,Z)-14a-((cyclopropylsulfonyl)carbamoyl)-2-((6-ethoxy-7-fluoroisoquinolin-1-yl)oxy)-7,9-dimethyl-5,16-dioxo-1,2,3,5,6,7,8,9,10,11,13a,14,14a,15,16,16a-hexadecahydrocyclopropa[e]pyrrolo[1,2-a][1,4]diazacyclopentadecin-6-yl)carbamate] | 8.30 to 9.00 | 9.30 to 10.00 |  |  |
| CCOc1cc2ccnc(O[C@@H]3C[C@H]4C(=O)N[C@]5(C(=O)NS(=O)(=O)C6CC6)C[C@H]5/C=C\CC[C@@H](C)C[C@@H](C)[C@H](NC(=O)OC(C)(C)C(C)(F)F)C(=O)N4C3)c2cc1F [Compound 5403, 3,3-difluoro-2-methylbutan-2-yl((2R,6S,7R,9R,13aS,14aR,16aS,Z)-14a-((cyclopropylsulfonyl)carbamoyl)-2-((6-ethoxy-7-fluoroisoquinolin-1-yl)oxy)-7,9-dimethyl-5,16-dioxo-1,2,3,5,6,7,8,9,10,11,13a,14,14a,15,16,16a-hexadecahydrocyclopropa[e]pyrrolo[1,2-a][1,4]diazacyclopentadecin-6-yl)carbamate] | 9.00 to 9.29 | 9.30 to 10.00 |  |  |
| CCOc1cc2ccnc(O[C@@H]3C[C@H]4C(=O)N[C@]5(C(=O)NS(=O)(=O)C6CC6)C[C@H]5/C=C\CC[C@@H](C)C[C@@H](CC)[C@H](NC(=O)OC(C)(C)C)C(=O)N4C3)c2cc1F [Compound 5405, tert-butyl ((2R,6S,7R,9R,13aS,14aR,16aS,Z)-14a-((cyclopropylsulfonyl)carbamoyl)-2-((6-ethoxy-7-fluoroisoquinolin-1-yl)oxy)-7-ethyl-9-methyl-5,16-dioxo-1,2,3,5,6,7,8,9,10,11,13a,14,14a,15,16,16a-hexadecahydrocyclopropa[e]pyrrolo[1,2-a][1,4]diazacyclopentadecin-6-yl)carbamate] | 8.30 to 9.00 | 9.00 to 9.29 |  |  |
| CCOc1cc2ccnc(O[C@@H]3C[C@H]4C(=O)N[C@]5(C(=O)NS(=O)(=O)C6CC6)C[C@H]5/C=C\CC[C@@H](C)C[C@@H](CC)[C@H](NC(=O)OC(C)(C)C(F)(F)F)C(=O)N4C3)c2cc1F [Compound 5407, 1,1,1-trifluoro-2-methylpropan-2-yl((2R,6S,7R,9R,13aS,14aR,16aS,Z)-14a-((cyclopropylsulfonyl)carbamoyl)-2-((6-ethoxy-7-fluoroisoquinolin-1-yl)oxy)-7-ethyl-9-methyl-5,16-dioxo-1,2,3,5,6,7,8,9,10,11,13a,14,14a,15,16,16a-hexadecahydrocyclopropa[e]pyrrolo[1,2-a][1,4]diazacyclopentadecin-6-yl)carbamate] | 8.30 to 9.00 | 9.00 to 9.29 |  |  |
| CCOc1cc2ccnc(O[C@@H]3C[C@H]4C(=O)N[C@]5(C(=O)NS(=O)(=O)C6CC6)C[C@H]5/C=C\CC[C@@H](C)C[C@@H](CC)[C@H](NC(=O)OC(C)(C)C(C)(F)F)C(=O)N4C3)c2cc1F [Compound 5409, 3,3-difluoro-2-methylbutan-2-yl((2R,6S,7R,9R,13aS,14aR,16aS,Z)-14a-((cyclopropylsulfonyl)carbamoyl)-2-((6-ethoxy-7-fluoroisoquinolin-1-yl)oxy)-7-ethyl-9-methyl-5,16-dioxo-1,2,3,5,6,7,8,9,10,11,13a,14,14a,15,16,16a-hexadecahydrocyclopropa[e]pyrrolo[1,2-a][1,4]diazacyclopentadecin-6-yl)carbamate] | 8.30 to 9.00 | 9.00 to 9.29 |  |  |
| CCOc1cc2ccnc(O[C@@H]3C[C@H]4C(=O)N[C@]5(C(=O)NS(=O)(=O)C6(CF)CC6)C[C@H]5/C=C\CC[C@H](C)C[C@@H](C)[C@H](NC(=O)OC(C)(C)C)C(=O)N4C3)c2cc1F [Compound 5410, tert-butyl ((2R,6S,7R,9S,13aS,14aR,16aS,Z)-2-((6-ethoxy-7-fluoroisoquinolin-1-yl)oxy)-14a-(((1-(fluoromethyl)cyclopropyl)sulfonyl)carbamoyl)-7,9-dimethyl-5,16-dioxo-1,2,3,5,6,7,8,9,10,11,13a,14,14a,15,16,16a-hexadecahydrocyclopropa[e]pyrrolo[1,2-a][1,4]diazacyclopentadecin-6-yl)carbamate] | 7.46 to 8.30 | 8.30 to 9.00 |  |  |
